Each block holds one molecule with its values, some of them ahead of it. Active and inactive are the calls of the source. No cut-off for these calls is given here.
How the values were obtained:
[1] = target: Glutamate [NMDA] receptor (Homo sapiens) (UniProt Q05586+Q12879+Q13224+O15399+O60391+Q14957+Q8TCU5); test: Displacement of [3H]-(+)-MK801 from PCP binding site of NMDA receptor (unknown origin); format: protein-complex assay; details: dose 1.0 µM
[2] = target: T1, Sigma intracellular receptor 2 (Rattus norvegicus, UniProt Q5U3Y7); test: Displacement of [3H]-di-o-tolylguanidine from sigma2 receptor in rat liver membrane by solid scintillation counting method; format: cell membranes
T1 sequence (Q5U3Y7 whole entry): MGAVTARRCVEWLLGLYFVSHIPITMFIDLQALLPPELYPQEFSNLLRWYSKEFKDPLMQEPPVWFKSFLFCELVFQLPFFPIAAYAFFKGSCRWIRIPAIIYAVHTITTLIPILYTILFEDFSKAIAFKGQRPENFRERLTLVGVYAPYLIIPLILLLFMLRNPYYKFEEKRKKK

[3] = target: Sigma non-opioid intracellular receptor 1 (Cavia porcellus, UniProt Q60492)
[4] = target: 5-hydroxytryptamine receptor 2B (Homo sapiens) (UniProt P41595); test: Binding affinity to human 5HT2B receptor
[5] = target: Delta-type opioid receptor (Homo sapiens) (UniProt P41143); test: Binding affinity to human delta opioid receptor
DU-145 = test: Antiproliferative activity against androgen-negative human DU145 cells assessed as inhibition of cell growth at 10 uM measured after 72 hrs by SRB assay; format: functional, cell-based
Mus musculus = test: Antiallodynic activity in CD-1 mouse assessed as analgesia at 40 mg/kg, sc administered 30 mins prior to capsaicin stimulation and measured after 15 mins by von Frey test (reference value: 97.3 %); format: functional; details: time 45 min, 0.75 h
[6] = target: Sodium-dependent dopamine transporter (Homo sapiens) (UniProt Q01959); test: Inhibition of dopamine transporter (unknown origin)
Cytochrome P450 2C19 = Cytochrome P450 2C19 (Homo sapiens, UniProt P33261); test: Inhibition of CYP2C19 (unknown origin) at 1 uM; format: ADME
[7] = target: T2, 5-hydroxytryptamine receptor 1A (Homo sapiens) (UniProt P08908); test: Binding affinity to human 5HT1A receptor
T2 sequence (whole entry): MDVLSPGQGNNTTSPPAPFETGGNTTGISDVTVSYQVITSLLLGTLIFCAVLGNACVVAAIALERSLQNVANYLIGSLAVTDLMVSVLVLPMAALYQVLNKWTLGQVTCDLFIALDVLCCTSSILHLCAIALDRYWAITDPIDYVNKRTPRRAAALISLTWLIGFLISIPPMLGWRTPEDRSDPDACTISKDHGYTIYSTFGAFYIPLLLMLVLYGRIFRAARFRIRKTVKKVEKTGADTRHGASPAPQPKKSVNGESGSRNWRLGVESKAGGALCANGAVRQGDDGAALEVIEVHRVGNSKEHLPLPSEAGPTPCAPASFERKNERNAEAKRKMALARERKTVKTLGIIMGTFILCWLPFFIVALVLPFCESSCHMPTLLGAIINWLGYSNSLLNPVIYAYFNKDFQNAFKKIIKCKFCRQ

Cytochrome P450 2C9 = Cytochrome P450 2C9 (Homo sapiens, UniProt P11712); test: Inhibition of CYP2C9 (unknown origin) at 1 uM; format: ADME
[8] = target: Sodium-dependent serotonin transporter (Homo sapiens) (UniProt P31645); test: Inhibition of serotonin transporter (unknown origin)
[9] = target: Sodium-dependent noradrenaline transporter (Homo sapiens) (UniProt P23975); test: Inhibition of noradrenaline transporter (unknown origin)
Cytochrome P450 3A4 = Cytochrome P450 3A4 (Homo sapiens, UniProt P08684); test: Inhibition of CYP3A4 (unknown origin) at 1 uM; format: ADME
[10] = target: Mu-type opioid receptor (Homo sapiens) (UniProt P35372); test: Binding affinity to human mu opioid receptor
[11] = target: T3, Alpha-2A adrenergic receptor (Homo sapiens) (UniProt P08913); test: Binding affinity to human alpha2A adrenergic receptor
T3 sequence (whole entry): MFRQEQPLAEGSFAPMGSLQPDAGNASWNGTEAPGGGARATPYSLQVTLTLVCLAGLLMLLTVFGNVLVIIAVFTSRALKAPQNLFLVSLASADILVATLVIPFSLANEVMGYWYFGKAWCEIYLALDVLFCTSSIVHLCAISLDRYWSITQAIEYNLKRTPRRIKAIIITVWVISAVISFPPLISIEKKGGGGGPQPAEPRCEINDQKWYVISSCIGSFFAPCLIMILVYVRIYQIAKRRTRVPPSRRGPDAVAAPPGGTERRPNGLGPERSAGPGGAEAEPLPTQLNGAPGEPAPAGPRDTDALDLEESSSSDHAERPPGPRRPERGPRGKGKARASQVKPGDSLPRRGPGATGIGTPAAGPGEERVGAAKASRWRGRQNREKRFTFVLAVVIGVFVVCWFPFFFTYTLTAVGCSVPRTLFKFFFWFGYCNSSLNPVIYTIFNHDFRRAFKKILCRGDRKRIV

[12] = target: Adrenergic receptor alpha-1 (Homo sapiens) (UniProt P35348+P25100+P35368); test: Binding affinity to human alpha1 adrenergic receptor; format: protein assay
Cytochrome P450 1A2 = target: T4, Cytochrome P450 1A2 (Homo sapiens, UniProt P05177); test: Inhibition of CYP1A2 (unknown origin) at 1 uM; format: ADME
T4 sequence (P05177 whole entry): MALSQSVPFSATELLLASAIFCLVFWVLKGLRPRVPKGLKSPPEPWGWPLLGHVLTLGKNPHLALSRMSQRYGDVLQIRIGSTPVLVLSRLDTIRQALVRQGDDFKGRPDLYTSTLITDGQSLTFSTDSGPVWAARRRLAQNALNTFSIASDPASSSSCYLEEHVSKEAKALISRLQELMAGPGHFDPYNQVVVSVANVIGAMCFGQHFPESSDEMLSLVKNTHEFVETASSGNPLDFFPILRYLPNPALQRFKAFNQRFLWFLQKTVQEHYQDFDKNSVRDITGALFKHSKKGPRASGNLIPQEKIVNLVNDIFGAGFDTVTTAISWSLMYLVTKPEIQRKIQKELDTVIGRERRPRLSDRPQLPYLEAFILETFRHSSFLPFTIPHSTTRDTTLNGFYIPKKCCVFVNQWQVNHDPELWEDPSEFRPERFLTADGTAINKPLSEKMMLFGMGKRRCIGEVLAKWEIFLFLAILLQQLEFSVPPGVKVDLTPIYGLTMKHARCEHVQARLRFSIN

[13] = target: Kappa-type opioid receptor (Homo sapiens) (UniProt P41145); test: Binding affinity to human kappa opioid receptor
[14] = target: Sigma intracellular receptor 2 (Rattus norvegicus) (UniProt Q5U3Y7); test: Displacement of [3H]-di-o-tolylguanidine from sigma2 receptor in rat liver membrane at 1 uM by solid scintillation counting method; format: cell membranes
[15] = target: Sigma non-opioid intracellular receptor 1 (Cavia porcellus) (UniProt Q60492); test: Displacement of [3H]-(+)-pentazocine from sigma1 receptor in guinea pig brain membrane at 1 uM measured after 120 mins by solid scintillation counting method; format: cell membranes
[16] = Selectivity ratio of Ki for sigma2 receptor in rat liver membrane to Ki for sigma1 receptor in guinea pig brain membrane; format: cell membranes

Sequence of Cytochrome P450 2C9 (P11712 whole entry): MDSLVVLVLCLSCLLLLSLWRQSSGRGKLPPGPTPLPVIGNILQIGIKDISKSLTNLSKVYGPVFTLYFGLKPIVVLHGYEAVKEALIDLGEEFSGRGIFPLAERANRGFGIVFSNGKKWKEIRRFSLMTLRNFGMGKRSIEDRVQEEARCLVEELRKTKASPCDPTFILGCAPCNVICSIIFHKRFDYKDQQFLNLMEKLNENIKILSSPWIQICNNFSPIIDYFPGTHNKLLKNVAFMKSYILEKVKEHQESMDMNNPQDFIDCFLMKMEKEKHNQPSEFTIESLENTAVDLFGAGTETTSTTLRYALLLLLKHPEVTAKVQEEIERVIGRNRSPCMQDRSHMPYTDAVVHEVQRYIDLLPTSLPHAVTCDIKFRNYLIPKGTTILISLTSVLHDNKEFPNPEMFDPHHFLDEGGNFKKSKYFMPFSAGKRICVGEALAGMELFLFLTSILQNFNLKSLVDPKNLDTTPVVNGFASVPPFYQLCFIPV
Sequence of 5-hydroxytryptamine receptor 2B (Homo sapiens) (P41595 whole entry): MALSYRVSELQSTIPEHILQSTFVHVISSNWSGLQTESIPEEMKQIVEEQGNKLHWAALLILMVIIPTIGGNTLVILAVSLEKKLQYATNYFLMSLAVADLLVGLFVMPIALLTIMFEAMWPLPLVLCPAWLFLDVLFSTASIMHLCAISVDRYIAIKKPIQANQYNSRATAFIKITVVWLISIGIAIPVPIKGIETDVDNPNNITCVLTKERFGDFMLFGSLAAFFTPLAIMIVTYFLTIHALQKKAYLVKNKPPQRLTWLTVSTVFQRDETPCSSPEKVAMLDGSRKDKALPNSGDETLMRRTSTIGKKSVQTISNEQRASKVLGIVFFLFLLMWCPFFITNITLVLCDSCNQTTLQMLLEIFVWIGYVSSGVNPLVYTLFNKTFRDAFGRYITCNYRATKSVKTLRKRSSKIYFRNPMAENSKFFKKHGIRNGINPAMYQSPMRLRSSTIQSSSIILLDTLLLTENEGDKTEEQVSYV
Sequence of Sigma non-opioid intracellular receptor 1 (Q60492 whole entry): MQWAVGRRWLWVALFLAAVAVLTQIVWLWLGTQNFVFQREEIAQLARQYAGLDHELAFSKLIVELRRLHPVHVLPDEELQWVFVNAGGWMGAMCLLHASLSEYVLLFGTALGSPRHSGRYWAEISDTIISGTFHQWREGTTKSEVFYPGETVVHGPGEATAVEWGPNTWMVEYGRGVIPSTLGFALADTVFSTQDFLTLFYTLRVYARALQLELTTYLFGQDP
Sequence of Sodium-dependent dopamine transporter (Homo sapiens) (Q01959 whole entry): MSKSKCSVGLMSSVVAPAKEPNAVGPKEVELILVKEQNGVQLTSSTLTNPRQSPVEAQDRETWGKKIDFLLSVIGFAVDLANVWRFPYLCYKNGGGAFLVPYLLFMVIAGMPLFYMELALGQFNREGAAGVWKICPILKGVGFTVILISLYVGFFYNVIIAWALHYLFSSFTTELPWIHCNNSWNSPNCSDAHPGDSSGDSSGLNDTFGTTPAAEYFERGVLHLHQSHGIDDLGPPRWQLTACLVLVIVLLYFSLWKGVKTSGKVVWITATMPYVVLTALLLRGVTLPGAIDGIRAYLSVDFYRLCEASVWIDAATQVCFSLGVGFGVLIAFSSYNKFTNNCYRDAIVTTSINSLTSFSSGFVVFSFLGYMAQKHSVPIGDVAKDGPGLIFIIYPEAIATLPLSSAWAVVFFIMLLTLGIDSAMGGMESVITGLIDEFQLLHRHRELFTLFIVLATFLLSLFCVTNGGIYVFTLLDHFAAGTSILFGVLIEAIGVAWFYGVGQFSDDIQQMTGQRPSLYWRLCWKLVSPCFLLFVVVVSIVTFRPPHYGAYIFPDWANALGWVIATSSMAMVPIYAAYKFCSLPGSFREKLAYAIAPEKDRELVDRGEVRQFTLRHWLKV
Sequence of Kappa-type opioid receptor (Homo sapiens) (P41145 whole entry): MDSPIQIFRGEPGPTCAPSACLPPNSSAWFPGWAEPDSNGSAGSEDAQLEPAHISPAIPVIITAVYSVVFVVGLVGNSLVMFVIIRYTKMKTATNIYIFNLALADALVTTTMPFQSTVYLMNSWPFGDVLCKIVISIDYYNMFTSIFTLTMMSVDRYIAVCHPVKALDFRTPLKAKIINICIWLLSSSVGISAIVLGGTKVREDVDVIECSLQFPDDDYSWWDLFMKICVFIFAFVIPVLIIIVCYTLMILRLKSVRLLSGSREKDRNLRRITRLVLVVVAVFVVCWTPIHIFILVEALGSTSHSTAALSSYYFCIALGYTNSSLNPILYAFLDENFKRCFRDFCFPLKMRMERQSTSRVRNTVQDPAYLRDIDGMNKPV
Sequence of Sodium-dependent noradrenaline transporter (Homo sapiens) (P23975 whole entry): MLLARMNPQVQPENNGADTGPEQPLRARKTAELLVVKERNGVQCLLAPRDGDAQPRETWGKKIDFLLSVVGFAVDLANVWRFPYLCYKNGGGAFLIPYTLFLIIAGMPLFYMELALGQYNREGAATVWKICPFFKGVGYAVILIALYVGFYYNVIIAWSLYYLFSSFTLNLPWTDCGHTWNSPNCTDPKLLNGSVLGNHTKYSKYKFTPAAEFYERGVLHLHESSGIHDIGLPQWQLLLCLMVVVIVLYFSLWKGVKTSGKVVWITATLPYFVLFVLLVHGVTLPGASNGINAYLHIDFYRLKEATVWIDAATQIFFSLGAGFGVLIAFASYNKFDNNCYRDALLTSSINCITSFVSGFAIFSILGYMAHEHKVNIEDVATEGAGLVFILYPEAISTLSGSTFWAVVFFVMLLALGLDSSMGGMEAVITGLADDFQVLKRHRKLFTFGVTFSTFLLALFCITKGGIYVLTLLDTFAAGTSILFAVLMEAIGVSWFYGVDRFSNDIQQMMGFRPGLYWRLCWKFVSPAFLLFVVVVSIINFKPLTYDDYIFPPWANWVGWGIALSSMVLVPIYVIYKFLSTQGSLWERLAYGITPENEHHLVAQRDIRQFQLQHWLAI
Sequence of Mu-type opioid receptor (Homo sapiens) (P35372 whole entry): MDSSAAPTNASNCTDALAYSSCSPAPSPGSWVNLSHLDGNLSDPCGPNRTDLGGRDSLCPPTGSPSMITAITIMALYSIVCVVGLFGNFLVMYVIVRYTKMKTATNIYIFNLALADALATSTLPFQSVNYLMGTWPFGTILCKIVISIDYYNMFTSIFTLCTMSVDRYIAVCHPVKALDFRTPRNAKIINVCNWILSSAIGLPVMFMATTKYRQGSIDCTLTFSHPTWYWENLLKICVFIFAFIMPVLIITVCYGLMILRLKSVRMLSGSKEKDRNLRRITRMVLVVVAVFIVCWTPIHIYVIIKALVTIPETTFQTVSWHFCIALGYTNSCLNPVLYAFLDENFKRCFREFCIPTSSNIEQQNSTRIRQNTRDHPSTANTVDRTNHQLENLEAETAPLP
Sequence of Cytochrome P450 3A4 (P08684 whole entry): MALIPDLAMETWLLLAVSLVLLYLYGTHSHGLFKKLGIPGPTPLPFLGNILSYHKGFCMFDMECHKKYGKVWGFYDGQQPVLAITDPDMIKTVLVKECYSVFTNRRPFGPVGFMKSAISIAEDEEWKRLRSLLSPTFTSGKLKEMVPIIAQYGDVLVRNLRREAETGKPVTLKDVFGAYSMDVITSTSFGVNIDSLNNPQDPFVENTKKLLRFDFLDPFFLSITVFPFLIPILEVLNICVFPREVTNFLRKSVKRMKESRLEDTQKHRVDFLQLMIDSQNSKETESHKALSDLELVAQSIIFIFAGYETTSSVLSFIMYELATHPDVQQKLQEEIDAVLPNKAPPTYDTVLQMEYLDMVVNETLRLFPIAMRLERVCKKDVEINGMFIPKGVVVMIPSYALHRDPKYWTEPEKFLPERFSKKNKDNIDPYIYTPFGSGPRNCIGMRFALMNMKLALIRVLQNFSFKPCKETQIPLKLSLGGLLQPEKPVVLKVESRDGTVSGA
Sequence of Cytochrome P450 2C19 (P33261 whole entry): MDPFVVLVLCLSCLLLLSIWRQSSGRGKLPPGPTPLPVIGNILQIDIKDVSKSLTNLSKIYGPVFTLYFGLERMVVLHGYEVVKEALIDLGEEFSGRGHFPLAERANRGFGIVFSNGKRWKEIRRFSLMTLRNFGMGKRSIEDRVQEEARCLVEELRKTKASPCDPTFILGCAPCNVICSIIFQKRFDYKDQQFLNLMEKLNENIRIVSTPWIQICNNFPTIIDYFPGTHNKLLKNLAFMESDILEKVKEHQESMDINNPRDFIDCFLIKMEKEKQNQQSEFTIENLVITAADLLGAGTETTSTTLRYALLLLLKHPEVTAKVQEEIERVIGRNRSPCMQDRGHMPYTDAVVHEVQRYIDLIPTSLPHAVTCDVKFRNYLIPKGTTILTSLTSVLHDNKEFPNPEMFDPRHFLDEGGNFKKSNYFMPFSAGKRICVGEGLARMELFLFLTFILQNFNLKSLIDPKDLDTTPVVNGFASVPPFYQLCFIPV
Sequence of Sodium-dependent serotonin transporter (Homo sapiens) (P31645 whole entry, looked up): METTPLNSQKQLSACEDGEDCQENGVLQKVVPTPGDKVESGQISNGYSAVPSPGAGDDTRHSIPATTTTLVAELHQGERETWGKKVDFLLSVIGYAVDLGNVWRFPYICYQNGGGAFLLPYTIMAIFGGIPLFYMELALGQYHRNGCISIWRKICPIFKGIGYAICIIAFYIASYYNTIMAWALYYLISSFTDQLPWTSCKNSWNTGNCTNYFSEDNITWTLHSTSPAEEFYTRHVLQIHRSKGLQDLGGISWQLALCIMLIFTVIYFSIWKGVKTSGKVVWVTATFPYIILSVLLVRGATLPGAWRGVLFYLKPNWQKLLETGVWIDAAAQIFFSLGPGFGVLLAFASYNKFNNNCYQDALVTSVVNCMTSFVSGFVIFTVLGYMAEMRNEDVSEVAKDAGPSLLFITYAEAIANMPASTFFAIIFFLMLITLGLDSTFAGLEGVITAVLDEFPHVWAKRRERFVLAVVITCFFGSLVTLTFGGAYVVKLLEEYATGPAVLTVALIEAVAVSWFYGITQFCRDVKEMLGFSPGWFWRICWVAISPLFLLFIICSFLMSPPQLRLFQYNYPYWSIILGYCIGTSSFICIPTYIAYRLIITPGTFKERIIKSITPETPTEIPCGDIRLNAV
Sequence of Sigma non-opioid intracellular receptor 1 (Cavia porcellus) (Q60492 whole entry): as the sequence (Q60492 whole entry) above

inhibition [1]: 43%
Ki [2]: 234 nM
Ki [3]: 15 nM
Compound: c1ccc(CCCCNCC[C@@H]2CCC[C@H](c3ccccc3)O2)cc1

inhibition [1]: 31%
Ki [2]: 4000 nM
Ki [3]: 217 nM
Compound: CN(C)CC[C@H]1CCC[C@@H](c2ccccc2)O1

Ki [2]: 161 nM
Ki [3]: 57 nM
Compound: c1ccc([C@@H]2CCC[C@H](CCN3CCN(c4ccccc4)CC3)O2)cc1

inhibition [1]: 7%
Ki [2]: 131 nM
Ki [3]: 21 nM
Compound: c1ccc([C@H]2CCC[C@@H](CCN3CCN(c4ccccc4)CC3)O2)cc1

inhibition [14]: 5%
inhibition [1]: 14%
inhibition [15]: 9%
Compound: NCC[C@@H]1CCC[C@H](c2ccccc2)O1

inhibition [14]: 10%
inhibition [1]: 43%
inhibition [15]: 4%
Compound: NCC[C@H]1CCC[C@@H](c2ccccc2)O1

inhibition [1]: 42%
Ki [2]: 377 nM
Ki [3]: 29 nM
Compound: c1ccc(CCCCNCC[C@H]2CCC[C@@H](c3ccccc3)O2)cc1

inhibition [1]: 37%
Ki [2]: 2300 nM
Ki [3]: 465 nM
Compound: CN(C)CC[C@@H]1CCC[C@H](c2ccccc2)O1

Second part, the molecule before the results:

Compound: c1ccc([C@H]2CCC[C@@H](CCN3CCCC3)O2)cc1
Ki [2]: 115 nM
Ki [3]: 60 nM

Compound: c1ccc(CNCC[C@H]2CCC[C@@H](c3ccccc3)O2)cc1
Activity [4]: inactive
Activity [5]: inactive
Activity (DU-145): Active
Activity (Mus musculus): 55%
inhibition [6]: inactive
inhibition (INH) (Cytochrome P450 2C19): Not Active
Activity [7]: inactive
inhibition (INH) (Cytochrome P450 2C9): Not Active
inhibition [8]: inactive
inhibition [9]: inactive
inhibition (INH) (Cytochrome P450 3A4): Not Active
Activity [10]: inactive
Ki [2]: 426 nM
Ki [3]: 5.4 nM
Activity [11]: inactive
Activity [12]: inactive
inhibition (INH) (Cytochrome P450 1A2): Not Active
Activity [13]: inactive

Compound: Cc1cc(OCCN2CCOCC2)nn1-c1ccc2ccccc2c1
Activity (Mus musculus): 97%

Compound: c1ccc([C@@H]2CCC[C@H](CCN3CCCC3)O2)cc1
Ki [2]: 170 nM
Ki [3]: 31 nM

Compound: c1ccc([C@H]2CCC[C@@H](CCNCC3CCCCC3)O2)cc1
Activity [4]: inactive
Activity [5]: inactive
Activity (DU-145): Active
Activity (Mus musculus): 67%
inhibition [6]: inactive
inhibition (INH) (Cytochrome P450 2C19): Not Active
inhibition [1]: 33%
Activity [7]: inactive
inhibition (INH) (Cytochrome P450 2C9): Not Active
inhibition [8]: inactive
inhibition [9]: inactive
inhibition (INH) (Cytochrome P450 3A4): Not Active
Activity [10]: inactive
Ki [2]: 57 nM
Ki [3]: 0.95 nM
Activity [11]: inactive
Activity [12]: inactive
inhibition (INH) (Cytochrome P450 1A2): Not Active
Activity [13]: inactive

Compound: c1ccc(CNCC[C@@H]2CCC[C@H](c3ccccc3)O2)cc1
Activity [4]: inactive
Activity [5]: inactive
Activity (DU-145): Active
Activity (Mus musculus): 21%
inhibition [6]: inactive
inhibition (INH) (Cytochrome P450 2C19): Not Active
Activity [7]: inactive
inhibition (INH) (Cytochrome P450 2C9): Not Active
inhibition [8]: inactive
inhibition [9]: inactive
Ratio Ki [16]: 236
inhibition (INH) (Cytochrome P450 3A4): Not Active
Activity [10]: inactive
Ki [2]: 378 nM
Ki [3]: 1.6 nM
Activity [11]: inactive
Activity [12]: inactive
inhibition (INH) (Cytochrome P450 1A2): Not Active
Activity [13]: inactive

Compound: c1ccc([C@@H]2CCC[C@H](CCNCC3CCCCC3)O2)cc1
Activity [4]: inactive
Activity [5]: inactive
Activity (DU-145): Active
Activity (Mus musculus): 53%
inhibition [6]: inactive
inhibition (INH) (Cytochrome P450 2C19): Not Active
inhibition [1]: 7%
Activity [7]: inactive
inhibition (INH) (Cytochrome P450 2C9): Not Active
inhibition [8]: inactive
inhibition [9]: inactive
inhibition (INH) (Cytochrome P450 3A4): Not Active
Activity [10]: inactive
Ki [2]: 36 nM
Ki [3]: 2.4 nM
Activity [11]: inactive
Activity [12]: inactive
inhibition (INH) (Cytochrome P450 1A2): Not Active
Activity [13]: inactive

— ChEMBL document CHEMBL4814072, “Chemoenzymatic synthesis of 2,6-disubstituted tetrahydropyrans with high σ1 receptor affinity, antitumor and analgesic activity” (Eur J Med Chem, 2021)
